The record followed here is patent US20180371422A1, “NON-VIRAL IPSCS INDUCING METHOD, COMPOSITIONS, KITS AND IPSCS” (Guangzhou Biocare Biotechnology Co., Ltd, priority 2016, published 2018).

Structures can show the parent of a compound that is named as a salt.

For this test, the system named is urine-derived renal epithelial cells. Briefly: AP staining, efficiency of AP positive clones (iPSCs induction). In kind it is cell-based, human. Particulars: Example 5; day 0 to day 8 of induction culture; FIG. 11-12. The protocol: 1. The procedure for AP staining is as follows,
a) Aspirate and remove the growth medium from the cultures to be stained when the cell culture is finished, wash the culture with 1×PBS one time; Fix the cells with 4% paraformaldehyde at room temperature for 2 min;
b) Aspirate the fixing solution, wash the culture with 1×TBST for 3 times; Balance with AP buffer at room temperature for 5 min;
c) Chromogenic reaction was performed with AP chromogenic reagent at room temperature in dark for 15 min (5-15 min, terminated when the color of clones became darker and without background, increase the reaction time appropriately if the clones were not stained). The chromogenic reagent was aspirated, cells were washed with 1×PBS for two times, covered with an appropriate amount of 1×PBS, observed and counted under a microscope.
Alkaline phosphatase (AP) is a phosphomonoesterase. The alkaline phosphatase in the cytoplasm can hydrolyze sodium naphthol phosphate to produce α-naphthol in alkaline environments. The latter reacts with a stable azo salt and presents a deep purple color, which the presence of alkaline phosphatase and the abundance of expression could be determined accordingly. Alkaline phosphatase is highly expressed in undifferentiated pluripotent stem cells, and the activity of alkaline phosphatase in the differentiated pluripotent stem cells is decreased. Therefore, whether the cells are clones of iPSCs could be determined by alkaline phosphatase staining (AP staining). And, thus the efficiency of iPSCs production can be easily judged according to the efficiency of AP positive clones.
a) Electroporation transformation: The recombinant plasmids obtained in step 1) were added into the culture of renal epithelial cells after digestion with trypsin, and then transferred into the renal epithelial cells. After electroporation, the cells were seeded on a cell culture plate coated with extracellular matrix;
b) Induction culture: 1-3 days after Step 1), or when the cells reached a confluence of 30% or more, the culture medium of pluripotent stem cell was used to continue induction culture. About 15-30 days after the mature of iPSCs clones, the positive clones of iPSCs were identified by AP staining, and the efficiency of AP positive clones was calculated accordingly;
Consider `O=C(NOC[C@H](O)CO)c1ccc(F)c(F)c1Nc1ccc(I)cc1F` [PD0325901], for which the “preferable concentration for promoting cell reprogramming (AP staining)” value stood at 0.5 µM.
The result for `N[C@@H]1C[C@H]1c1ccccc1` [tranylcypromine hydrochloride, Tranylcypromine hydrochloride] reads 2 µM; that for `Cc1c[nH]c(-c2cnc(NCCNc3ccc(C#N)cn3)nc2-c2ccc(Cl)cc2Cl)n1` [CHIR-99021], 3 µM; that for `CCCC(=O)[O-].[Na+]` [sodium butyrate, Sodium Butyrate], 0.25 µM.
